From ChEMBL document CHEMBL1201862, “PubChem BioAssay data set” (2004)
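Grown in 96-well plates, cells were treated for 48 hours with each compound at five concentrations. Insufficient inhibition: endpoint recorded as highest concentration tested. GI50 marks 50% less growth.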 Activity calls are given as the source filed them. No stated cut-off is given here; in the data, active = GI50 up to about 1.1 µM and inactive = higher.

Assays:
Experiment in all cases: inhibition of tumour cell growth, NCI panel, 48 h
[1] = test system: 786-0
[2] = test system: M14
[3] = test system: MDA-N
[4] = test system: HT-29
[5] = test system: PC-3
[6] = test system: NCI-H460
[7] = test system: COLO 205
[8] = test system: A498
[9] = test system: SF-539
[10] = test system: IGROV-1
[11] = test system: T47D
[12] = test system: NCI-H226
[13] = test system: RPMI-8226
[14] = test system: LOX IMVI
[15] = test system: CCRF-CEM
[16] = test system: SNB-75
[17] = test system: SK-MEL-2
[18] = test system: HCC 2998
[19] = test system: UACC-257
[20] = test system: SR

Row | Compound | GI50 [1] | GI50 [2] | GI50 [3] | GI50 [4] | GI50 [5] | GI50 [6] | GI50 [7] | GI50 [8] | GI50 [9] | GI50 [10] | GI50 [11] | GI50 [12] | GI50 [13] | GI50 [14] | GI50 [15] | GI50 [16] | GI50 [17] | GI50 [18] | GI50 [19] | GI50 [20]
1 | CC/C(=N\NC(=O)c1cccnc1)c1ccc2c(c1)OCCO2 | > 100 µM (inactive) | > 100 µM (inactive) | 30.9 µM (inactive) | > 100 µM (inactive) | > 100 µM (inactive) | > 100 µM (inactive) | > 100 µM (inactive) | > 100 µM (inactive) | > 100 µM (inactive) | > 100 µM (inactive) | > 100 µM (inactive) | > 100 µM (inactive) | > 100 µM (inactive) | > 100 µM (inactive) | > 100 µM (inactive) | > 100 µM (inactive) | > 100 µM (inactive) |  |  | 
2 | CC1SC2(CCCCC2)N(NC(=O)CSc2nc3ccc(Cl)cc3c(=O)n2-c2ccccc2)C1=O (stereo unspecified) | 18.2 µM (inactive) | 20 µM (inactive) | 18.3 µM (inactive) | 16.6 µM (inactive) | 23.2 µM (inactive) | 16.8 µM (inactive) | 13.8 µM (inactive) | 32.6 µM (inactive) | 17.3 µM (inactive) | 12 µM (inactive) | 27.3 µM (inactive) |  |  | 19.5 µM (inactive) | 34.4 µM (inactive) | 20.7 µM (inactive) | 17.3 µM (inactive) | 20 µM (inactive) | 22.8 µM (inactive) | 
3 | CCCCSC1=N/C(=C\c2ccc(N(C)C)cc2)C(=O)N1 | 17.9 µM (inactive) | 38.9 µM (inactive) | 33.6 µM (inactive) | 11.9 µM (inactive) | 0.256 µM (active) | 20.8 µM (inactive) | 35.5 µM (inactive) | 13.9 µM (inactive) | 24.5 µM (inactive) | 35.3 µM (inactive) | 18.7 µM (inactive) | 18 µM (inactive) | 16.7 µM (inactive) | 28.6 µM (inactive) | > 100 µM (inactive) | 35.5 µM (inactive) |  |  | 20.4 µM (inactive) | 
4 | N#CC(Nc1ccccc1)c1ccc(C(C#N)Nc2ccccc2)cc1 (stereo unspecified) | 36.5 µM (inactive) | 13.7 µM (inactive) | 13.2 µM (inactive) | 20.8 µM (inactive) | 28.8 µM (inactive) | 44.6 µM (inactive) | 27.1 µM (inactive) | > 100 µM (inactive) | 25.7 µM (inactive) | 34.6 µM (inactive) | 24.8 µM (inactive) | > 100 µM (inactive) |  | 1.17 µM (inactive) | 5.07 µM (inactive) |  | > 100 µM (inactive) | 30.3 µM (inactive) | 81.3 µM (inactive) | 
5 | CN1CN(c2ccccc2)C2(CCN(Cc3nc4ccccc4s3)CC2)C1=O | 17.2 µM (inactive) | 13.5 µM (inactive) |  | 17 µM (inactive) | 14.2 µM (inactive) |  | 18.1 µM (inactive) | 15.9 µM (inactive) | 17.8 µM (inactive) | 15.7 µM (inactive) | 16.2 µM (inactive) | 16.4 µM (inactive) | 16 µM (inactive) | 17.3 µM (inactive) | 17.3 µM (inactive) | 16.7 µM (inactive) | 18.6 µM (inactive) |  | 16.6 µM (inactive) | 14.8 µM (inactive)
6 | CC1(C)O[C@H]2Cn3c(c(C#N)c4ccccc43)[C@H]2O1 | > 100 µM (inactive) | > 100 µM (inactive) | > 100 µM (inactive) | > 100 µM (inactive) |  | > 100 µM (inactive) | > 100 µM (inactive) |  | > 100 µM (inactive) | > 100 µM (inactive) | > 100 µM (inactive) |  | > 100 µM (inactive) |  |  | 39.8 µM (inactive) | > 100 µM (inactive) | > 100 µM (inactive) |  | > 100 µM (inactive)
7 | Cc1cc(S(=O)(=O)Nc2nc(N)n[nH]2)c(S)cc1Cl | > 10 µM (inactive) | > 10 µM (inactive) | > 10 µM (inactive) | > 10 µM (inactive) | > 10 µM (inactive) | > 10 µM (inactive) | > 10 µM (inactive) | > 10 µM (inactive) | > 10 µM (inactive) | > 10 µM (inactive) | > 10 µM (inactive) | > 10 µM (inactive) | > 10 µM (inactive) | > 10 µM (inactive) | > 10 µM (inactive) | > 10 µM (inactive) | > 10 µM (inactive) | > 10 µM (inactive) | > 10 µM (inactive) | 
8 | COC(=O)c1ccccc1C1CN=NC12Cc1c(C)c3c(c(C)c1C2=O)CCC3 (stereo unspecified) | 76.9 µM (inactive) | > 100 µM (inactive) | > 100 µM (inactive) | 40.1 µM (inactive) | > 100 µM (inactive) | > 100 µM (inactive) | > 100 µM (inactive) | > 100 µM (inactive) | > 100 µM (inactive) | > 100 µM (inactive) | > 100 µM (inactive) | > 100 µM (inactive) |  | > 100 µM (inactive) | > 100 µM (inactive) | 40.6 µM (inactive) | > 100 µM (inactive) | > 100 µM (inactive) | 25.2 µM (inactive) | 
9 | CCOC(=O)c1nc2ccc(C(F)(F)F)cc2nc1Oc1ccc(C(=O)OC)cc1 | 66.1 µM (inactive) | 57.1 µM (inactive) |  | 81.7 µM (inactive) | 32.5 µM (inactive) | 54.5 µM (inactive) | > 100 µM (inactive) | > 100 µM (inactive) | 77.8 µM (inactive) | 59.4 µM (inactive) | > 100 µM (inactive) | 45.5 µM (inactive) | > 100 µM (inactive) | > 100 µM (inactive) | > 100 µM (inactive) | 50.4 µM (inactive) | 32.1 µM (inactive) | > 100 µM (inactive) | > 100 µM (inactive) | > 100 µM (inactive)
10 | Cn1c2c(c3c(=O)[nH]ncc31)CCCc1ccccc1-2 | 27.8 µM (inactive) | 39.3 µM (inactive) |  | 28.4 µM (inactive) | 26.1 µM (inactive) | 23.6 µM (inactive) | 17.9 µM (inactive) | 22.4 µM (inactive) | 35.7 µM (inactive) | 24.5 µM (inactive) | 38.9 µM (inactive) | 27.2 µM (inactive) | 17.4 µM (inactive) | 21.6 µM (inactive) | 34.5 µM (inactive) | 23.6 µM (inactive) | 20.8 µM (inactive) |  | 34.1 µM (inactive) | 0.0993 µM (active)
11 | C[C@@H](C(=O)O)N1C(c2ccco2)=C(/C(C=O)=C\c2ccco2)C(=O)/C1=C\c1ccco1 | > 100 µM (inactive) | > 100 µM (inactive) | > 100 µM (inactive) | > 100 µM (inactive) | > 100 µM (inactive) |  | > 100 µM (inactive) | > 100 µM (inactive) | > 100 µM (inactive) | > 100 µM (inactive) | > 100 µM (inactive) |  | > 100 µM (inactive) | > 100 µM (inactive) | > 100 µM (inactive) |  | > 100 µM (inactive) |  | > 100 µM (inactive) | 
12 | Cc1ccc(C(=O)OCC(C)C)cc1/N=N/N(C)C | > 81.5 µM (inactive) | 67 µM (inactive) | > 100 µM (inactive) | 16.1 µM (inactive) | 48.4 µM (inactive) | > 100 µM (inactive) | > 100 µM (inactive) |  | > 86.7 µM (inactive) | > 100 µM (inactive) | 35.3 µM (inactive) | > 100 µM (inactive) | 77.6 µM (inactive) | 31.1 µM (inactive) | > 100 µM (inactive) |  | > 100 µM (inactive) | > 100 µM (inactive) | 26 µM (inactive) | 70.5 µM (inactive)
13 | COc1ccc(-c2nc(-c3cnccn3)n(COCCO)n2)cc1 | > 100 µM (inactive) | > 100 µM (inactive) | > 100 µM (inactive) | > 100 µM (inactive) | > 100 µM (inactive) | > 100 µM (inactive) | > 100 µM (inactive) |  | > 100 µM (inactive) | > 100 µM (inactive) | > 100 µM (inactive) |  | > 100 µM (inactive) | > 100 µM (inactive) | > 100 µM (inactive) |  |  | > 100 µM (inactive) | > 100 µM (inactive) | > 100 µM (inactive)
14 | COc1ccc(C2C3=C(N=C4SC(C(C)=O)=C(C)N42)c2ccccc2CC3)cc1 (stereo unspecified) | > 100 µM (inactive) | > 100 µM (inactive) | 21.1 µM (inactive) | 6.52 µM (inactive) | > 100 µM (inactive) |  | > 100 µM (inactive) | > 100 µM (inactive) | > 100 µM (inactive) | 10.1 µM (inactive) | 31.8 µM (inactive) | 18.7 µM (inactive) | 4.91 µM (inactive) | 63.8 µM (inactive) | 28.8 µM (inactive) | > 100 µM (inactive) | > 100 µM (inactive) | 42.4 µM (inactive) | 73.3 µM (inactive) | 
15 | COC(=O)/C=C\C(C#N)(C#N)/N=C/c1ccc(Br)s1 | 5.42 µM (inactive) | 3.1 µM (inactive) | 7.98 µM (inactive) | 2.35 µM (inactive) | 13.4 µM (inactive) | 20.8 µM (inactive) | 2.31 µM (inactive) | 17.7 µM (inactive) |  | 14.9 µM (inactive) | 3.52 µM (inactive) | 3.18 µM (inactive) | 2.32 µM (inactive) | 2.16 µM (inactive) | 0.853 µM (active) | 15.2 µM (inactive) | 17.3 µM (inactive) | 19.1 µM (inactive) | 15.1 µM (inactive) | 
16 | CC1(C)OC2C(O)CN3CCS[C@H]3C2O1 (stereo partly specified) | > 100 µM (inactive) | > 100 µM (inactive) |  | > 100 µM (inactive) | > 100 µM (inactive) | > 100 µM (inactive) | > 100 µM (inactive) | > 100 µM (inactive) |  | > 100 µM (inactive) | > 100 µM (inactive) | > 100 µM (inactive) | > 100 µM (inactive) | > 100 µM (inactive) | > 100 µM (inactive) | > 100 µM (inactive) | > 100 µM (inactive) | > 100 µM (inactive) | > 100 µM (inactive) | > 100 µM (inactive)
